IC50 data for eight compounds are collected here from patent US9738640B2, “Substituted benzamide derivatives as in vitro MAO-B inhibitors” (“NTZ LAB” Ltd., priority 2013, dated 2017).

Format in all cases: biochemical
The target in one test is rat MAO-A (Rattus norvegicus (Rat), UniProt P21396). Description: Rat MAO-A assay (Amplex Red fluorescence, rat liver mitochondria). Particulars: deprenyl-pretreated, substrate p-tyramine 300 μM. As to the method:
(§1) The MAO-A and MAO-B enzyme activity of the compounds, according to the present invention, was estimated following an assay adapted from the method described by Holt et al. (Anal. Biochem. 244, 384-392, 1997). The MAO experiments were performed using a fluorescence-based detection of resorufin, obtained by a reaction of released from the biological sample hydrogen peroxide with 10-acetyl-3,7-dihydroxyphenoxazine (ADHP) in the presence of a peroxidase (horseradish peroxidase-coupled reaction, HRP). The inhibitory in vitro MAO activity of the compounds of general Formula I was investigated at rat and human MAO-A and MAO-B. To perform rat MAO-A and MAO-B experiments, a preliminary membrane preparation of mitochondrial-enriched rat livers isolated from male Sprague-Dawley rats (Harlan Sprague Dawley, Dublin, US) was required. As sources for recombinant human MAO-A and MAO-B enzymes were used microsomal products, prepared from baculovirus-infected insect cells expressing human MAO-A (Sigma-Aldrich, M7316) and human MAO-B (Sigma-Aldrich, M7441), respectively.
(§2) To estimate MAO inhibitory activity of the compounds of Formula I at rat and human MAO-A and MAO-B, the corresponding test compound was dissolved in 100% DMSO and subsequently added to the appropriate enzyme solution containing rat liver mitochondria (rat MAO-A and -B) or recombinant human protein (for determination of human MAO-A and -B) in sodium phosphate buffer. The test sample was incubated for 30 min at room temperature prior to the addition of Amplex Red reagent (Invitrogen A12214) using for the fluorescence-based measuring of MAO inhibitory activity. The enzymatic reaction was started by the addition of the substrate p-tyramine. The fluorescence measurements were performed over a period of 45 min using a microplate fluorescence reader (excitation at 544 nm and emission at 590 nm). IC50 values were determined from the inhibition curves obtained using different inhibitor concentrations in triplicate within the same experiment. A four-parameter logistic equation was used to fit the dose-response curves for test compounds using a computer program.
(§3) MAO-A and MAO-B enzymatic activity of the compounds was measured in 96-well-plates using a continuous fluorescence-based assay. This assay was adapted from the method described by Holt et al. (Anal. Biochem., 244, 384-392, 1997). The MAO experiments were performed using the commercial assay kit Amplex Red (Invitrogen A12214). The kit was stored frozen at ≦−20° C. and protected from light before use. The Amplex Red MAO assay kit was used for the detection of H2O2 released from the biological sample. Subsequently, a reaction of 10-acetyl-3,7-dihydroxyphenoxazine (ADHP, Amplex Red reagent) with H2O2 in the presence of a peroxidase (horse-radish peroxidase-coupled reaction, HRP) led to the production of resorufin. The quantification of hydrogen peroxide released from the biological sample and the subsequent production of resorufin was monitored using a fluorescence microplate reader (Holt et al., Anal. Biochem., 244, 384-392, 1997). To ensure an optimal efficiency of the Amplex Red reagent, the MAO assay's were performed at pH 7.4.
MAO enzyme-containing mitochondrial-enriched fractions of rat were obtained from male Sprague-Dawley rat livers (250-300 g, Harlan Sprague-Dawley, Dublin, Va., US). The livers (10.0 g) were dissected, given into 15.0 mL of an ice-cold 5.0 mM Hepes buffer (pH 7.4), containing 210 mM mannitol, 70 mM sucrose, 0.5 mM ethylene glycoltetraacetic acid (EGTA), and 2.0 mg/mL of bovine serum albumin (BSA), and homogenized using a glass/Teflon potter (10 ups and downs at 1100 rpm). After homogenization, the volume is adjusted to 100 mL with the same buffer. After a low speed centrifugation (10 min at 600 g; 4° C.), the supernatant was further centrifuged at 15,000 rpm for 5 min at +4° C. […]

The next test concerns the target rat MAO-B (Rattus norvegicus (Rat), UniProt P19643). In words: Rat MAO-B assay (Amplex Red fluorescence, rat liver mitochondria). Particulars: clorgyline-pretreated, substrate p-tyramine.
A further test deals with human MAO-A (Homo sapiens (Human), UniProt P21397). In words: Human MAO-A assay (Amplex Red fluorescence, recombinant enzyme). The conditions noted are these: substrate p-tyramine 150 μM. As to the method:
as §1, §2, §3
Recombinant human MAO-A enzyme, expressed in baculovirus-infected insect cells, was purchased from Sigma-Aldrich (M7316). The assay was carried out in 96-well plates in a final volume of 200 μL at room temperature. According to the experiment protocol, a solution of test compound (2.0 μL) in DMSO (100%) was added to 90.0 μL of protein solution (0.3 μg prot/well, containing 6.6 μL protein and […] phosphate buffer) and incubated for 30 min prior to the addition of 90 μL of freshly prepared Amplex Red reagent. The Amplex Red reagent was prepared as described for rat MAO-A. The enzymatic reaction was started by the addition of 20.0 μL/well of an aqueous solution of the substrate p-tyramine (150 μM final concentration). […]

In the next test the target is human MAO-B (Homo sapiens (Human), UniProt P27338). In words: Human MAO-B assay (Amplex Red fluorescence, recombinant enzyme). The conditions noted are these: substrate p-tyramine.

Each structure is given as a SMILES string.

In general, IC50 refers to the midpoint of a concentration-inhibition curve.

Chain of human MAO-A (P21397 whole entry): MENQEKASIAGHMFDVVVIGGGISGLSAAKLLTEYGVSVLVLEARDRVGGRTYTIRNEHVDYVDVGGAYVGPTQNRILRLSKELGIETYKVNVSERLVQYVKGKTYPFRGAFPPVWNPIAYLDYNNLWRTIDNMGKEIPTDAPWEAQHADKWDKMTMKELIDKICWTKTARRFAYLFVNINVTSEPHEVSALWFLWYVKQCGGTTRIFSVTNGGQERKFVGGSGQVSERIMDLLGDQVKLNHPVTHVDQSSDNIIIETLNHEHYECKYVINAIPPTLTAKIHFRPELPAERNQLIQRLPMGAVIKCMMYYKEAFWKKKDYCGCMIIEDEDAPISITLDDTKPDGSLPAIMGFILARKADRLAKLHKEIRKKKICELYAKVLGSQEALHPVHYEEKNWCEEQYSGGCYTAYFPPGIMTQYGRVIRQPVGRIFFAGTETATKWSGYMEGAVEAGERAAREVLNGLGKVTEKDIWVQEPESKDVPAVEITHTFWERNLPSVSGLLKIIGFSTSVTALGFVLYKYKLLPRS
Chain of rat MAO-B (P19643 whole entry): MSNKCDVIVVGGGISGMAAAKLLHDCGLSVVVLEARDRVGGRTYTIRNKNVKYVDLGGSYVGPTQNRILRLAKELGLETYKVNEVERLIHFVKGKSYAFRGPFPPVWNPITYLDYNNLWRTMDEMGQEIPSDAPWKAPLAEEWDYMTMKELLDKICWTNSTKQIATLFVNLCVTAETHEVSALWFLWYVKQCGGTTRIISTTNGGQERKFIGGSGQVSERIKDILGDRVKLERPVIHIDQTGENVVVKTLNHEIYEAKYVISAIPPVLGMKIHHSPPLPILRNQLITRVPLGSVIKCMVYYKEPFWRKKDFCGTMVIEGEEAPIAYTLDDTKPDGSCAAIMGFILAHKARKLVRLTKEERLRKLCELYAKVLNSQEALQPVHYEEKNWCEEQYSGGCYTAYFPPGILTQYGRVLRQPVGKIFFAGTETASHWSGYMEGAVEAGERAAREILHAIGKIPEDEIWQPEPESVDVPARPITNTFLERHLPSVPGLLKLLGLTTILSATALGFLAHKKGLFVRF
Chain of rat MAO-A (P21396 whole entry): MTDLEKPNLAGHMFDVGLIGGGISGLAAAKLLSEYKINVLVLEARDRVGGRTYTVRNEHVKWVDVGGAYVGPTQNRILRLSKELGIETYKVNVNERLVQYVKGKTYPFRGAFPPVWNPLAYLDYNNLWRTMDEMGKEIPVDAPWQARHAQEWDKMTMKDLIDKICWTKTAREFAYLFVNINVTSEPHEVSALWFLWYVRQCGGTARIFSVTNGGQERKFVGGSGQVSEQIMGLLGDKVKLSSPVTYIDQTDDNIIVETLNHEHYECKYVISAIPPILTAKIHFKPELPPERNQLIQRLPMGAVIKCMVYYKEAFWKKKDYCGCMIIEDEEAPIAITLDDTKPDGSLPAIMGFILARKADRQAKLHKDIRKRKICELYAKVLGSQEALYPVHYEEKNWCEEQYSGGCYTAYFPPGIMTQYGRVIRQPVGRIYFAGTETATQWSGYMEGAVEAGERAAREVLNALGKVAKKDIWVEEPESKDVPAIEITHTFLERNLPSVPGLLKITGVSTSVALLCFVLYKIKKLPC
Chain of human MAO-B (P27338 whole entry): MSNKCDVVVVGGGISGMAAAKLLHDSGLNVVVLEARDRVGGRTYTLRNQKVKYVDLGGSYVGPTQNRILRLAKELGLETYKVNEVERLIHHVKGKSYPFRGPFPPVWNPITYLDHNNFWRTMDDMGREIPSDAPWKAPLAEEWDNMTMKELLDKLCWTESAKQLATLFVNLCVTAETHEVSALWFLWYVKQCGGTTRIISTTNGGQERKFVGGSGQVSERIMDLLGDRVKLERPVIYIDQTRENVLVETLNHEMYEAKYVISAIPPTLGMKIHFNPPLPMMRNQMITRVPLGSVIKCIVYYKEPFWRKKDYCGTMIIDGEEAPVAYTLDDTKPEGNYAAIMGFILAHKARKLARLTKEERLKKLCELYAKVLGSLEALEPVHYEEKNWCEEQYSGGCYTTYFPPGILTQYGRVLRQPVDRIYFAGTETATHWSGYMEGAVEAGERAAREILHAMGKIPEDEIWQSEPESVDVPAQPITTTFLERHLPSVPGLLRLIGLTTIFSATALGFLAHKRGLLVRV
Experimental for human MAO-B: (§4) To estimate MAO inhibitory activity of the compounds of Formula I at rat and human MAO-A and MAO-B, the corresponding test compound was dissolved in 100% DMSO and subsequently added to the appropriate enzyme solution containing rat liver mitochondria (rat MAO-A and -B) or recombinant human protein (for determination of human MAO-A and -B) in sodium phosphate buffer. The test sample was incubated for 30 min at room temperature prior to the addition of Amplex Red reagent (Invitrogen A12214) using for the fluorescence-based measuring of MAO inhibitory activity. The enzymatic reaction was started by the addition of the substrate p-tyramine. […] IC50 values were determined from the inhibition curves obtained using different inhibitor concentrations in triplicate within the same experiment. A four-parameter logistic equation was used to fit the dose-response curves for test compounds using a computer program.
MAO-A and MAO-B enzymatic activity of the compounds was measured in 96-well-plates using a continuous fluorescence-based assay. […] The MAO experiments were performed using the commercial assay kit Amplex Red (Invitrogen A12214). The kit was stored frozen at ≦−20° C. and protected from light before use. The Amplex Red MAO assay kit was used for the detection of H2O2 released from the biological sample. Subsequently, a reaction of 10-acetyl-3,7-dihydroxyphenoxazine (ADHP, Amplex Red reagent) with H2O2 in the presence of a peroxidase (horse-radish peroxidase-coupled reaction, HRP) led to the production of resorufin. […] To ensure an optimal efficiency of the Amplex Red reagent, the MAO assay's were performed at pH 7.4.
The assay was carried out in 96-well plates in a final volume of 200 μL at room temperature. According to the experiment protocol, a solution of test compound (2.0 μL) in DMSO (100%) was added to 90.0 μL of protein solution (0.3 μg prot/well, containing 6.6 μL protein and 9.993 μL phosphate buffer) and incubated for 30 min prior to the addition of 90 μL of freshly prepared Amplex Red reagent. […] The p-tyramine solution was prepared from p-tyramine hydrochloride (45 μL) in water (100 mM) and phosphate buffer (2955 μL). […] DMSO (2.0 μL) was used as a negative control.
Recombinant human MAO-B enzyme, expressed in baculovirus-infected insect cells, was purchased from Sigma-Aldrich (M7441).
Experimental for rat MAO-B: as §4
MAO enzyme-containing mitochondrial-enriched fractions of rat were obtained from male Sprague-Dawley rat livers (250-300 g, Harlan Sprague-Dawley, Dublin, Va., US). The livers (10.0 g) were dissected, given into 15.0 mL of an ice-cold 5.0 mM Hepes buffer (pH 7.4), containing 210 mM mannitol, 70 mM sucrose, 0.5 mM ethylene glycoltetraacetic acid (EGTA), and 2.0 mg/mL of bovine serum albumin (BSA), and homogenized using a glass/Teflon potter (10 ups and downs at 1100 rpm). After homogenization, the volume is adjusted to 100 mL with the same buffer. After a low speed centrifugation (10 min at 600 g; 4° C.), the supernatant was further centrifuged at 15,000 rpm for 5 min at +4° C. The resulting pellet was resuspended in 2.0 mL of a 50 mM sodium phosphate buffer (pH 7.4) and stored at −80° C. in aliquots of 1.0 mL until further use.
Assays were performed in 96-well plates in a final volume of 200 μL at room temperature. […] Test compounds (2.0 μL), dissolved in DMSO (100%), were added to 90.0 μL of mitochondrial preparation (25.0 μg prot) and incubated for 30 min prior to the addition of 90 μL of freshly prepared Amplex Red reagent, prepared as recommended in the kit from Invitrogen (A12214). For a 96-well plate, 1.0 mg of Amplex Red, dissolved in 200 μL of DMSO (100%) and 100 μL of reconstituted horse-radish peroxidase (HRP 200 U/mL, Sigma Aldrich P6782) stock solution (kit vial+1.0 mL of sodium phosphate buffer) were added to 9700 μL of sodium phosphate buffer (250 mM at pH 7.4).

Consider `O=C(Nc1ccc2[nH]ccc2n1)c1ccc(F)c(Cl)c1` [Example 2, 3-chloro-4-fluoro-N-(1H-pyrrolo[3,2-b]pyridin-5-yl)benzamide], for which the IC50 on rat MAO-A is over 10000 nM; at rat MAO-B, 4.9 ± 0.33 nM; at human MAO-A, over 10000 nM; on human MAO-B, 3.27 ± 0.04 nM.
Take `O=C(Nc1cc2cc[nH]c2cn1)c1ccc(F)c(F)c1` [Example 8, 3,4-difluoro-N-(1H-pyrrolo[2,3-c]pyridin-5-yl)benzamide]: the half-inhibitory concentration (IC50) on rat MAO-A was over 10000 nM; at human MAO-A, over 10000 nM; on human MAO-B, 277 ± 12 nM.
As for `O=C(Nc1cc2cc[nH]c2cn1)c1ccc(F)c(Cl)c1` [Example 7, 3-chloro-4-fluoro-N-(1H-pyrrolo[2,3-c]pyridin-5-yl)benzamide], the IC50 at rat MAO-A was under 10000 nM; at rat MAO-B it was 158 ± 16 nM; at human MAO-A, under 10000 nM; at human MAO-B, 72 ± 2.6 nM.
Turning to `O=C(Nc1ccc2c(ccn2C(=O)c2ccc(Cl)c(F)c2)n1)c1ccc(Cl)c(F)c1` [Example 5, 4-chloro-N-(1-(4-chloro-3-fluorobenzoyl)-1H-pyrrolo[3,2-b]pyridin-5-yl)-3-fluorobenzamide], the IC50 is over 10000 nM on rat MAO-A, 246 ± 53 nM at rat MAO-B, over 10000 nM on human MAO-A and 27.5 ± 2 nM on human MAO-B.
`O=C(Nc1ccc2[nH]ccc2n1)c1ccc(Cl)c(Cl)c1` [Example 1, 3,4-dichloro-N-(1H-pyrrolo[3,2-b]pyridin-5-yl)benzamide]: the IC50 on rat MAO-A and on human MAO-A was over 10000 nM each time.
Turning to `O=C(Nc1ccc2[nH]ccc2n1)c1ccc(Cl)c(F)c1` [Example 3, 4-chloro-3-fluoro-N-(1H-pyrrolo[3,2-b]pyridin-5-yl)benzamide], the half-maximal inhibitory concentration (IC50) at rat MAO-A was over 10000 nM; on rat MAO-B it was 85.5 ± 5.8 nM; on human MAO-A, over 10000 nM; at human MAO-B, 10.9 ± 0.75 nM.
For the compound `O=C(Nc1ccc2[nH]ccc2n1)c1ccc(F)c(F)c1` [Example 4, 3,4-difluoro-N-(1H-pyrrolo[3,2-b]pyridin-5-yl)benzamide], the IC50 at rat MAO-A is over 10000 nM; at rat MAO-B it was 153 ± 11 nM; on human MAO-A, over 10000 nM; at human MAO-B, 46.1 ± 1.5 nM.
Turning to `O=C(Nc1cc2cc[nH]c2cn1)c1ccc(Cl)c(Cl)c1` [Example 6, 3,4-dichloro-N-(1H-pyrrolo[2,3-c]pyridin-5-yl)benzamide], the IC50 on rat MAO-A is at least 10000 nM; on rat MAO-B, 224 ± 17 nM; at human MAO-A, under 10000 nM; on human MAO-B it was 28.5 ± 2.4 nM.
